Reference: patent US20220146519A1, “INTEGRIN ALPHA V BETA 3 TARGETING PROBE FOR DIAGNOSING RETINOCHOROIDAL NEOVASCULAR DISEASES AND PREPARATION METHOD THEREFOR” (SEOUL NATIONAL UNIVERSITY HOSPITAL, priority 2019, published 2022)
“Also recorded” adds a separate entry of the source.

What was measured:
integrin αvβ3 [1] = assay: Fluorescence staining of vessels in retinal and choroidal flatmounts using FITC-labeled RGD peptide; design: species or system mouse; conditions: for staining of choroidal neovascularization lesions (laser-treated areas): ex vivo choroidal flatmount, 7 days after laser-induced choroidal neovascularization, C57BL/6 mice
integrin αvβ3, sequence (P43406 31-885 limits assumed): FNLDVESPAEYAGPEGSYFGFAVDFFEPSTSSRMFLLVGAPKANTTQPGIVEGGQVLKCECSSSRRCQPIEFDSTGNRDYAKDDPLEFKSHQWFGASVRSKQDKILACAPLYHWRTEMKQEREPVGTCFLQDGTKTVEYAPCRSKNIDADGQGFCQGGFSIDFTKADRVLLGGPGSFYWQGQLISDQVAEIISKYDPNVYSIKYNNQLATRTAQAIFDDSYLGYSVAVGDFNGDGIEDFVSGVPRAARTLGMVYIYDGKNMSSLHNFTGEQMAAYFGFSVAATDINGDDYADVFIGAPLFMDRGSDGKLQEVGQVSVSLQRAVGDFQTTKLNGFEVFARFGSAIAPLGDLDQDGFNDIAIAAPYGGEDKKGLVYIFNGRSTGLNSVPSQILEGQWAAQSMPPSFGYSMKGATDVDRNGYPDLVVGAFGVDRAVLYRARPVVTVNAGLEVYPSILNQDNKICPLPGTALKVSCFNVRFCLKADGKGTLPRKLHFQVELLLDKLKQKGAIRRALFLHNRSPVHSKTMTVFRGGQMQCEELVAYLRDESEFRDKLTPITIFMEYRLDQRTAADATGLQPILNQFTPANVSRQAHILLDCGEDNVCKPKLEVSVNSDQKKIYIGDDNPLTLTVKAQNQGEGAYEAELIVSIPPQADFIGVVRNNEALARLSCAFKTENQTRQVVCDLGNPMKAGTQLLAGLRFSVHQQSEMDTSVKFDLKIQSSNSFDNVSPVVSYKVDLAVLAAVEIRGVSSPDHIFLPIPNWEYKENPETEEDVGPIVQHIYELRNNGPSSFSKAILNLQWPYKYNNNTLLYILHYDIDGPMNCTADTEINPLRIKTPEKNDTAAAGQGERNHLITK
integrin αvβ3, sequence (P43406 887-1044 partner limits assumed): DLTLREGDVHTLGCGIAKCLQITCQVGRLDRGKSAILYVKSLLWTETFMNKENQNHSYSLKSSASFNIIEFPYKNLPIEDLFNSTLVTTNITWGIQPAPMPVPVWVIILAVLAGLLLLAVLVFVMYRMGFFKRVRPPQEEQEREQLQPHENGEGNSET
integrin αvβ3, sequence (O54890 26-787, further chain): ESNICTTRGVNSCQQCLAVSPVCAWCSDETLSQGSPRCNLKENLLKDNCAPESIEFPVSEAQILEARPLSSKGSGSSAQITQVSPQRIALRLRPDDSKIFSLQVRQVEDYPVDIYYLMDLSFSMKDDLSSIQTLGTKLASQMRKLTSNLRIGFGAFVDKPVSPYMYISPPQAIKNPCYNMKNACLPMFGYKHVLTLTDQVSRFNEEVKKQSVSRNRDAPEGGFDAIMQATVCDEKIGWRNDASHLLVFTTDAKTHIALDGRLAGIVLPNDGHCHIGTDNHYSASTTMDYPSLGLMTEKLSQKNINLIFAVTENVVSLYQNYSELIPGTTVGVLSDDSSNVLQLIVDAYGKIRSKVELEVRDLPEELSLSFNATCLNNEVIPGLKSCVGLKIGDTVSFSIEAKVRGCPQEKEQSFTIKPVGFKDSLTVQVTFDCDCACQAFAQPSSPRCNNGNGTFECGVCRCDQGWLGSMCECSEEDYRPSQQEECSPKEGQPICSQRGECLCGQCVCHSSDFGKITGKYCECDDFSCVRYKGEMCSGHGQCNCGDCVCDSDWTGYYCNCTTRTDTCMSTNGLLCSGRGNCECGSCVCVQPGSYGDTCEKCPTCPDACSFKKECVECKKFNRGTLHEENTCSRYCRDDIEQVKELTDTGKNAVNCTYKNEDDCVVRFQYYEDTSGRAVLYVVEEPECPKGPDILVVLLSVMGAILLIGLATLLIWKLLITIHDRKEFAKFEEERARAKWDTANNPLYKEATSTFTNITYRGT
Protocol: After intravenous anesthesia using a 1:1 mixture of 100 mg/mL ketamine and 20 mg/mL xylazine and pupillary dilatation using 5.0% phenylephrine and 0.8% tropicamide, C57BL/6 mice were placed on the Mayo stand (Coherent PC-920 Argon Ion Laser System; Coherent Medical Laser, Santa Clara, Calif.). Choroidal neovascularization was induced using 512-nm argon laser photocoagulation, with 100 urn of spot size and 100 mW of power for 0.1 s in the right eye. Five lesions of about 2-3 disc diameters were generated from the optic disc. The formation of bubbles upon laser delivery can be considered sufficient damage to induce rupture of Bruch's membrane and choroidal neovascularization. When subretinal hemorrhage occurred after the laser treatment, the mice were excluded from the experiment.
Ten eyes were prepared as choroidal flatmounts. For the flatmounts, mice were anesthetized at days 7 or 14 and eyes were enucleated and fixed with 4% paraformaldehyde for 30 min at 4° C. The anterior segment and retina were removed from the eyecup, and four radial incisions were made. The remaining retinal pigment epithelium (RPE)-choroid-sclera complex was flatmounted and coverslipped. Flatmounts were examined with a scanning laser confocal microscope (LSM710; Carl Zeiss, Oberkochen, Germany). […]
Fluorescence staining with FITC-D-[c(RGDfK)]^2 was performed as follows: • (1) the retinal and choroidal flatmounts were washed with PBS and incubated with FITC-D-[c(RGDfK)]2 for 30 minutes; • (2) the slides were washed with PBS several times, counterstained with 4′,6-diamidino-2-phenylindole (DAPI), and mounted with ProLong Gold anti-fade reagent (Life Technologies, Carlsbad, Calif., USA); • (3) and after staining, the flatmounts were mounted with the vitreous side up on glass slides and visualized on a confocal microscope (LSM710; Carl Zeiss, Oberkochen, Germany).

integrin αvβ3 [2] = assay: Specificity of FITC-D-[c(RGDfK)]2 staining evaluated with excess cRGD peptides; assay type: binding, mouse; conditions: 10 nM probe; 2-hour incubation with 200 nM (20-fold) cRGD before staining; choroidal flatmount
Protocol: Additionally, the specificity of FITC-D-[c(RGDfK)]2 staining was evaluated by using an excess of cRGD peptides. For this experiment, one mouse with identical laser-induced choroidal neovascularization in both eyes was sacrificed. One eye of the mouse was stained with the staining method described above using 10 nM of FITCD-[c(RGDfK)]2. The other eye was stained with the staining method described above plus a 2-hour incubation with excess cRGD peptides (for example, 20-fold molar concentration of the FITC-conjugated cRGD dimer, i.e., 200 nM) prior to the fluorescence staining. In this staining, the present inventors used an integrin αvβ3 antibody to investigate if the staining with the integrin αvβ3 antibody co-localized with that of the FITC-conjugated cRGD dimer.

Substance: FITC-D-[c(RGDfK)]2 [FITC-labeled cyclic RGD peptide]
- staining of choroidal neovascularization lesions (laser-treated areas) (integrin αvβ3 [1]): intense immunofluorescence staining; also recorded: allowed the visualization of choroidal neovascularization at laser-treated areas
- staining of choroidal neovascularization lesions (laser-treated areas) (integrin αvβ3 [1]; listed as FITC-labeled RGD peptide): laser-treated lesion stained with FITC-labeled RGD peptide corresponded to that stained with lectin
- staining of normal vessels in the retina (integrin αvβ3 [1]; ex vivo untreated retina flatmount, lectin-positive normal vessels): barely stained
- fluorescence of probe after pre-incubation with excess cRGD (integrin αvβ3 [2]): remarkably reduced
